Consider 13 molecules from patent US6506766B1 (Abbott Laboratories, priority 1998, dated 2003).

The target of data set [1] is T1, human progesterone receptor-A [PRA] isoform (Homo sapiens, UniProt P06401).
T1 construct: host or cells: insect SF21 cells (baculovirus)
T1 sequence (P06401 1-769 isoform P06401-2): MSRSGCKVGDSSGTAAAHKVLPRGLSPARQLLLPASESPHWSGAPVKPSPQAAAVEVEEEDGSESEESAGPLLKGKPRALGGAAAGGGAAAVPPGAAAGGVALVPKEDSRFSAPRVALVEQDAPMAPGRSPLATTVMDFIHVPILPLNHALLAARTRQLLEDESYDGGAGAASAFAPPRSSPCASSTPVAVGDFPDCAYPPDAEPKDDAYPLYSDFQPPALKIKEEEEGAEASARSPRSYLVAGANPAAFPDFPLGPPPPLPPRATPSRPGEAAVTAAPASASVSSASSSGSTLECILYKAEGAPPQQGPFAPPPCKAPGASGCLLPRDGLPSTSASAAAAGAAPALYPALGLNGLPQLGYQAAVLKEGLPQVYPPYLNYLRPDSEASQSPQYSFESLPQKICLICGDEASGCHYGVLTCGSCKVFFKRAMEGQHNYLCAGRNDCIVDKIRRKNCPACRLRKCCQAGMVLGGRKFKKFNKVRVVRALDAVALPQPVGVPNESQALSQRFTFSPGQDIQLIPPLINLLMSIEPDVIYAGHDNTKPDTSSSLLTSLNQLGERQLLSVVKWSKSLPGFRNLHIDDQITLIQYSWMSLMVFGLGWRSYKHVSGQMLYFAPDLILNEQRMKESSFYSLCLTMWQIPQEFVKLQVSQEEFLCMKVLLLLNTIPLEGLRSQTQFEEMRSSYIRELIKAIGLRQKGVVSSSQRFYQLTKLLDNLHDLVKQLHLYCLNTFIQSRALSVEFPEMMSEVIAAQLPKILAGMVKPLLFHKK
In words: Radioligand binding with human progesterone receptor cytosol ([3H]-progesterone competition). The settings on record: PRA cytosol expressed in insect SF21 cells, [3H]Prog ~0.8 nM, 4° C. overnight; Ki by Cheng-Prusoff, KL ~4.5 nM; read-out: Ki (nM) PR.
Description: Both receptor cDNAs were cloned into baculovirus expression vectors and expressed in insect SF21 cells.
Stock solutions (32 mM) of compounds were prepared in dimethylsulfoxide (DMSO), and 50× solutions of test compounds were prepared from the 32 mM solution with a 50:50 mixture of DMSO/ethanol. The 50× solution was then diluted with binding buffer that contained 10 mM Tri-HCl, 1.5 mM EDTA, 10% glycerol, 1 mM DTT, 20 mM sodium molybdate, pH 7.5 @4° C. 1% DMSO/ethanol was present in the binding assay.
For PR binding assays, [^3H]Prog (˜36,000 dpm (˜0.8 nM)), PRA cytosol (˜40 μg protein), test compounds and binding buffer were mixed in a total volume of 200 μL and incubated at 4° C at overnight in a plate shaker. Specific binding was defined as the difference between binding of [^3H]Prog in the absence and in the presence of 3 μM unlabelled Prog.
After an overnight incubation, 50 μL of hydroxyapatite (25% weight/volume) slurry were added to each well and plates were incubated for 10 min at 0° C. in a plate shaker. Plates were suctioned with a Millipore vacuum manifold and each well was rinsed with 300 μL of ice-cold binding buffer. A 250 μL aliquot of Packard Microscint-20 was added to each well and the wells were shaken at room temperature for 20 minutes. The amount of radioactivity was determined with a Packard TopCount plate reader.
The Ki of test compounds was determined using the Cheng-Prusoff equation Ki=IC50/(1+[L*]/[KL]) where L* is the concentration of radioligand and KL is the dissociation constant of the radioligand determined from saturation analysis.

The target of data set [2] is T2, human glucocorticoid receptor-α [GRX] isoform (Homo sapiens, UniProt P04150).
T2 construct: host or cells: insect SF21 cells (baculovirus)
T2 sequence (P04150 1-777): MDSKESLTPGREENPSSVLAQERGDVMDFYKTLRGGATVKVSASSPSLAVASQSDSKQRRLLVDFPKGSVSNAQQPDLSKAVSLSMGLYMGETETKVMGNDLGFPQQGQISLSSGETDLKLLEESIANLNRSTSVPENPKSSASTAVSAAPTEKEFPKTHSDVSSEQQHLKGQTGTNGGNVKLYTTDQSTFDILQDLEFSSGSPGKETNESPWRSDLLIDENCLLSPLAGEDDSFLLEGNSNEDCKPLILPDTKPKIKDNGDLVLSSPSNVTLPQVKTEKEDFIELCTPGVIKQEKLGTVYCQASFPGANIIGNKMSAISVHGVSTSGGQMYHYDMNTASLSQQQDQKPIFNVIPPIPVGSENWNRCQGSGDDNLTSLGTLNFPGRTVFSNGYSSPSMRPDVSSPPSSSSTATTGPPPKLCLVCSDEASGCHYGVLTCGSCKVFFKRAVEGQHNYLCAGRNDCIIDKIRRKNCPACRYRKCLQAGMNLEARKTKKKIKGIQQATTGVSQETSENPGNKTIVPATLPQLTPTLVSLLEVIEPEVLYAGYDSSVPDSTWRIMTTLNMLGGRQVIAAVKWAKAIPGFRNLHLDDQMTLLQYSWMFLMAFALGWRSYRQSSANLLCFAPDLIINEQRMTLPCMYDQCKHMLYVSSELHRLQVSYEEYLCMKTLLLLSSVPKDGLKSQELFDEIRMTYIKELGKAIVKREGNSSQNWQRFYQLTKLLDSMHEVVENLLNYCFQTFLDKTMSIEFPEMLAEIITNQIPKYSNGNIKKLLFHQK
The data set can be described thus: Radioligand binding with human glucocorticoid receptor cytosol ([3H]-dexamethasone competition). The settings on record: GRX cytosol expressed in insect SF21 cells, [3H]-Dex ~0.9 nM, 4° C. overnight; Ki by Cheng-Prusoff, KL ~[…]; read-out: Ki (nM) GR.

`C=Cc1cccc2c1-c1ccc3c(c1C(C1(C)CC=CCC1)O2)C(C)=CC(C)(C)N3` (stereo not shown) [Example 341, 2,5-Dihydro-10-ethenyl-5-[1-methyl-3-cyclohexenyl]-2,2,4-trimethyl-1H-[1]benzopyrano[3,4-f]quinoline]: the melting point is 198 to 201 °C.

`COc1cccc2c1-c1ccc3c(c1[C@H]([C@H]1C=C(CO)CCC1)O2)C(C)=CC(C)(C)N3` (relative stereo) [Example 148]: the figures for the inhibition constant (Ki) in data set [1] and in data set [2] were at least 10000 nM and 2.8 nM, respectively.

Regarding `C=CCC1Oc2cccc(OC)c2-c2ccc3c(c21)C(C)=CC(C)(C)N3` (stereo not shown) [Example 2, 2,5-Dihydro-10-methoxy-2,2,4-trimethyl-5-(2-propenyl)-1H-[1]benzopyrano[3,4-f]quinoline], the results for the Ki in data set [1] and in data set [2] were 1700 nM and 7.6 nM, respectively.

In the case of `COC(=O)CC1Oc2ccc(O)c(OC)c2-c2ccc3c(c21)C(C)=CC(C)(C)N3` (stereo not shown) [Example 281, Methyl 2-[2,5-Dihydro-9-hydroxy-10-methoxy-2,2,4-trimethyl-1H-[1]benzopyrano[3,4-f]-5-quinoline]acetate], the inhibition constant Ki in data set [1] worked out at 526 nM; in data set [2], 0.84 nM.

With `C=CCC1Oc2ccc(OC(=O)CCCC(=O)N(CC)CC)c(OC)c2-c2ccc3c(c21)C(C)=CC(C)(C)N3` (stereo not shown) [Example 437], the inhibitory constant (Ki) in data set [1] was 449 nM; in data set [2], 0.97 nM.

Consider `CC1=CC(C)(C)Nc2ccc3c(c21)C(c1ccccc1)Oc1ccc(Cl)c(OC(F)F)c1-3` (stereo not shown) [Example 231, 9-Chloro-10-difluoromethoxy-5-phenyl-2,2,4-trimethyl-2,5-dihydro-1H-[1]benzopyrano[3 4-f]quinoline], for which the Ki in data set [1] came to 1870 nM; in data set [2], 30.2 nM.

As for `COc1c(O)ccc2c1-c1ccc3c(c1/C(=C/c1cccc(F)c1)O2)C(C)=CC(C)(C)N3` [Example 374, Z-5-(3-Fluorobenzylidenyl)-10-methoxy-9-hydroxy-2,2,4-trimethyl-2,5-dihydro-1H-[1]benzopyrano[3,4-f]quinoline], the values for the inhibition constant (Ki) in data set [1] and in data set [2] were 222 nM and 9 nM, respectively.

As to `C=CCNc1cc(C)cc(C2Oc3cccc(OC)c3-c3ccc4c(c32)C(C)=CC(C)(C)N4)c1` (stereo not shown) [Example 115], the Ki in data set [1] was at least 10000 nM; in data set [2], 17 nM.

Consider `COc1cccc2c1-c1ccc3c(c1C(c1ccc(O)cc1)O2)C(C)=CC(C)(C)N3` (stereo not shown) [Example 95, 4-(2,5-Dihydro-10-methoxy-2,2,4-trimethyl-1H-[1]benzopyrano[3,4-f]quinolin-5-yl)phenol], for which the inhibitory constant (Ki) in data set [1] was at least 10000 nM; in data set [2], 31 nM.

With `COc1cccc2c1-c1ccc3c(c1C(C/C=C/COC(=O)N(C)C)O2)C(C)=CC(C)(C)N3` (stereo not shown) [Example 196, (E) 2,5-Dihydro-10-methoxy-5-(4-(N,N-dimethylaminocarbonyloxy)-2-buten-1-yl)-2,2,4-trimethyl-1H-[1]benzopyrano[3,4-f]quinoline], the results for the inhibitory constant (Ki) in data set [1] and in data set [2] were at least 10000 nM and 1.1 nM, respectively.

On to `COc1cccc2c1-c1ccc3c(c1C(CC1CO1)O2)C(C)=CC(C)(C)N3` (stereo not shown) [Example 175, 2,5-Dihydro-10-methoxy-5-(1,2-epoxy-3-propenyl)-2,2,4-trimethyl-1H-[1]benzopyrano[3,4-f]quinoline], for which the results for the Ki in data set [1] and in data set [2] were 7700 nM and 44 nM, respectively.

Consider `CC1=CC(C)(C)Nc2ccc3c(c21)C(CC(C)C)Oc1ccc(O)c(Cl)c1-3` (stereo not shown) [Example 409, 2,5-Dihydro-9-hydroxy-10-chloro-2,2,4-trimethyl-5-(2-methylpropyl)-1H-[1]benzopyrano[3,4-f]quinoline], for which the Ki in data set [1] was 42 nM; in data set [2], 2.7 nM.

For the molecule `C=CCC1Oc2c(C)cc(C)c(OC)c2-c2ccc3c(c21)C(C)=CC(C)(C)N3` (stereo not shown) [Example 308, 10-Methoxy-7-methyl-9-methyl-5-(3-propenyl)-2,2,4-trimethyl-1H-2,5-dihydro-[1]benzopyrano[3,4-f]quinoline], the values for the Ki in data set [1] and in data set [2] were 960 nM and 50.8 nM, respectively.

One may read the melting point as the temperature of the solid-liquid transition. The term Ki denotes a measure of affinity in units of concentration, obtained from inhibition or displacement.
